From patent US10144713B1, “Bis-cyclic guanidines as antibacterial agents” (UNIVERSITY OF SOUTH FLORIDA, priority 2017, dated 2018)

Columns and labels:
E. coli [1] = assay: Fluorescence microscopy (DAPI/PI) of bacterial membranes, E. coli; format: cell-based; conditions: 10 μg/mL, 2 h, 37° C.
Method: (§1) Fluorescence microscopy studies were conducted to evaluate the ability of compound 12 to compromise membranes of S. aureus (Gram-positive bacterium) and E. coli (Gram-negative bacterium). Fluorescent agent 4′,6-diamidino-2-phenylindole (DAPI) was used to stain membranes of bacterial cells with blue fluorescence regardless of cell viability, and the red fluorescence of propidium iodide (PI) due to the DNA intercalation was used to stain impaired membranes. After MRSA and E. Coli grew to mid-logarithmic phase, the compound 12 was incubated with the bacteria at 37° C. for 2 h. The mixture was then centrifuged at 5000 rpm for 15 min. The cell pellets were washed with the PBS buffer for three times, and incubated with PI ([…]) and DAPI (10 μg/mL) for 15 min sequentially on ice in the dark. The mixture was then centrifuged and the pellets were washed with the PBS buffer. Next, 10 μL of the samples were placed on chamber slides and observed under Zeiss Axio Image Zloptical microscope using 100× oil-immersion objective.

MRSA = assay: Drug-resistance study, 14 passages, MRSA; format: cell-based, S. aureus; conditions: half-MIC exposure, 14 successive passages
Method: (§2) Bacterial resistance tests were conducted using compound 12. The compound was incubated with either MRSA or E. Coli in the well at the concentration of half-MIC (½ MIC, 10^6 CFU/ml) every day and tested for their activity through 14 successive passages.

E. coli (ATCC 25922) = assay: MIC against E. coli; format: cell-based; conditions: Escherichia coli, ATCC25922; Gram −; 16 h, 37° C.
Method: (§3) Minimum Inhibitory Concentrations (MICs) Against Bacteria.
(§4) The antimicrobial activity of the compounds was tested on the following six bacteria strains: K. pneumoniae (ATCC 13383), P. aeruginosa (ATCC27853), E. coli (ATCC 25922), vancomycin-resistant Enterococcus faecalis(ATCC 700802), Methicillin-resistant S. aureus (MRSA, ATCC 33591), Methicillin-resistant S. epidermidis (MRSE, RP62A). The procedures were followed as reported previously (Hancock et al., Immunobiology 2006, 211, 315-322). Briefly, a single colony of each bacterium was inoculated in 3 mL TSB medium and incubated overnight at 37° C. Then the bacteria culture was diluted at 1:100 and the bacteria were allowed to grow to mid-logarithmic phase. Next, 50 μL of 2-fold serial dilutions of compounds (0.1-25 μg/mL) were added the 96-well plate containing aliquots of 50 μL of bacteria suspension (1×10^6 CFU/mL) in each well. The mixture was incubated at 37° C. for 16 h, and their absorption at 600 nm wavelength was read on a Biotek Synergy HT microtiter plate reader. […] The experiments were repeated at least three times with duplicates each time. HC50 means the concentration causing 50% hemolysis.

E. coli biofilm = assay: Biofilm formation inhibition (crystal violet), E. coli; format: cell-based; conditions: Escherichia coli
Method: (§5) Bacteria in biofilms are known to tolerate antibiotic treatment and are thus more difficult to eradicate than planktonic cells. Biofilms formed by MRSA and E. coli have frustrated the treatment of persistent bacterial infections. Compound 12 was evaluated for its ability to inhibit biofilm formation of MRSA and E. coli. Overnight grown bacteria were inoculated into fresh 10% of MHII broth at a ratio of 1:100. 100 μL of inoculated culture was incubated with appropriated amounts of compound 12 in wells of 96-well plate. The plate was incubated at 37° C. for overnight. Optical density of each well was recorded at the wavelength of 600 nm and then the biofilm biomass was recorded by the crystal violet method. Biofilm biomass was presented as CV OD/OD of growth. Relative biofilm biomass values were normalized by the biomass value of control (no addition of compound). Experiments were conducted in triplicate and the data were presented as mean±STDEV.

E. coli [2] = assay: Drug-resistance study, 14 passages, E. coli; format: cell-based; conditions: half-MIC exposure, 14 successive passages
Method: as §2

[3] = system: six bacteria strains (K. pneumoniae, P. aeruginosa, E. coli, VRE, MRSA, MRSE); assay: Antimicrobial activity on the panel of six bacteria strains; format: cell-based
Method: as §3, §4

S. aureus = assay: Fluorescence microscopy (DAPI/PI) of bacterial membranes, S. aureus; format: cell-based; conditions: 2 h
Method: as §1

MRSA biofilm = assay: Biofilm formation inhibition (crystal violet), MRSA; format: cell-based, S. aureus
Method: as §5

S. aureus ATCC 33591 = assay: Thigh burden infection model in neutropenic mice; format: in vivo, CD-1 female mice; conditions: 5 mg/kg i.v. at 1 and 7 h after infection, thighs harvested at 25 h
Method: Neutropenic mice (n=4 per group) were inoculated in the posterior thigh muscles with S. aureus ATCC 33591 at 1×10^6 CFU per thigh and then treated with compounds 11 and 12 (5 mg/kg per dose) by i.v. bolus injection in the tail vein at 1 and 7 h after infection.
A thigh burden model was employed to evaluate the in vivo anti-infective activity of compounds 11 and 12, in which the thigh muscle of neutropenic mice was inoculated with S. aureus, followed by intravenous (i.v.) administration of corresponding compounds. All protocols and methods associated with animal experiments were approved by University of South Florida (USF) Institutional Animal Care and Use Committee. The in vivo experiment on the mouse model of the thigh burden infection with MRSA was conducted adapted from previously reported protocol. The CD-1 female mice which were 6 to 8 weeks old and around 25 g in weights were used for the study. Neutropenic Mice were induced by injecting cyclophosphamide (150 mg/kg) intraperitoneally twice at 4 and 1 days before bacterial inoculation. One MRSA colony from tryptic soy agar (TSA) cultures was allowed to grow in tryptic soy broth (TSB) overnight at 37° C., then 100 μL culture was withdrawn and diluted with TSB to a total volume of 4 mL, which was subsequently incubated at 37° C. for another 6 h. […] The formed colonies were counted to calculate CFU per thigh.

[4] = system: Methicillin-resistant S. epidermidis (MRSE, RP62A); assay: MIC against MRSE; format: cell-based; conditions: Staphylococcus epidermidis, MRSE; Gram +; 16 h, 37° C.
Method: as §3, §4

[5] = system: vancomycin-resistant Enterococcus faecalis (ATCC 700802); assay: MIC against VRE; format: cell-based; conditions: Gram +; 16 h, 37° C.
Method: as §3, §4

SMILES: CCCCCCN1C(=N)N(CC(=O)Nc2cccc(NC(=O)CN3C[C@H](Cc4ccccc4)N(CCCCCC)C3=N)c2)C[C@@H]1Cc1ccccc1 [Compound 12]
- membrane integrity of E. coli (PI red fluorescence) (E. coli [1]): disrupted
- MIC after 14 passages (MRSA): virtually constant
- MIC (E. coli (ATCC 25922)): 0.75 µg/mL
- inhibition at 0.19 µg/mL (E. coli biofilm; 0.19 μg/mL): 38%
- inhibition at 0.39 µg/mL (E. coli biofilm; 0.39 μg/mL): ~90%
- MIC after 14 passages (E. coli [2]): virtually constant
- antibacterial activity against the tested bacteria (in words) [3]: potent and broad-spectrum activity
- MIC ([3]; read-out: MIC toward most strains): 0.75 µg/mL
- membrane integrity of S. aureus (PI red fluorescence) (S. aureus; 10 μg/mL, 37° C.): disrupted
- aggregation of S. aureus (S. aureus; in the presence of compound): significant aggregation
- inhibition of biofilm formation (MRSA biofilm; 0.39 μg/mL): completely eradicated
- inhibition at 0.19 µg/mL (MRSA biofilm; Staphylococcus aureus, 0.19 μg/mL): 85%
- decrease in colony-forming unit (CFU) per thigh (S. aureus ATCC 33591): 5 log10 CFU
- MIC [4]: 0.75 µg/mL
- MIC [5]: 0.75 µg/mL
